Reference: US11234979B2, “Heteroaryl compounds as muscarinic M1 receptor positive allosteric modulators” (SUVEN LIFE SCIENCES LIMITED, priority 2017, dated 2022)

Molecular target: T1, recombinant human Muscarinic M1 receptor (Homo sapiens, UniProt P11229)
T1 construct: expressed in transfected cells
T1 sequence (P11229 1-460): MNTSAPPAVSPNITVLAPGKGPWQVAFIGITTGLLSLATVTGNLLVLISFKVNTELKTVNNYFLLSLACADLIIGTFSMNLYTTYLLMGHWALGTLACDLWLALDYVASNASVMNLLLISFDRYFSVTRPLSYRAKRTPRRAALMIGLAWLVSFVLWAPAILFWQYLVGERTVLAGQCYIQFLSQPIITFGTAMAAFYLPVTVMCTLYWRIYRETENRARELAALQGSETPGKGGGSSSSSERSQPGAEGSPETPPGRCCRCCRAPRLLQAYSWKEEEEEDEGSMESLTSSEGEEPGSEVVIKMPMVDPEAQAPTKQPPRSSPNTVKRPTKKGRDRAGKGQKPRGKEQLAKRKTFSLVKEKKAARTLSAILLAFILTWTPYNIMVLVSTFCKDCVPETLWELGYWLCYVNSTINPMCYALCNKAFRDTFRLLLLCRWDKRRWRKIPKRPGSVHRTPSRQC
Assay: Allosteric potency EC50 for Muscarinic M1 receptor, CHO pCRE-Luc reporter assay with EC20 of acetylcholine
Assay type: cell-based
Details: CHO cells, in presence of EC20 of acetylcholine, 4 hours
Experimental: Determination of Allosteric Potency EC50 Values for Muscarinic M1 Receptor:
A stable CHO cell line expressing recombinant human Muscarinic M1 receptor and pCRE-Luc reporter system was used for cell-based assay. The assay offers a non-radioactive based approach to determine binding of a compound to GPCRs. In this specific assay, the level of intracellular cyclic AMP which is modulated by activation or inhibition of the receptor is measured. The recombinant cells harbor luciferase reporter gene under the control of cAMP response element.
The above cells were grown in 96 well clear bottom white plates in Hams F12 medium containing 10% fetal bovine serum (FBS). Prior to the addition of compounds or standard agonist, cells were serum starved overnight. Increasing concentrations of test compounds were added along with EC20 of acetylcholine in OptiMEM medium to the cells. The incubation was continued at 37° C. in CO2 incubator for 4 hours. Medium was removed and cells were washed with phosphate buffered saline. The cells were lysed and luciferase activity was measured in a Luminometer. Luminescence counts in each concentrations of test item were normalized to the acetylcholine induced maximum response and the data was analyzed using Graphpad software. EC50 values of the compounds were defined as the concentration required in stimulating the luciferase activity by 50% in presence of EC20 of acetylcholine.

Row | Compound | EC50 [µM]
1 | O=C(NC1CCOCC1O)c1cc(Cc2ccc(Br)cc2)c2cccnn12 (centres unmarked) [Example 31, N-(3-Hydroxytetrahydropyran-4-yl)-5-(4-bromobenzyl)-pyrrolo[1,2-b]pyridazine-7-carboxamide] | 1.03
2 | O=C(N[C@H]1CCCC[C@@H]1O)c1cc(Cc2ccnc(Cl)c2)n2cccc(F)c12 [Example 43, N-(cis-1S,2S-2-Hydroxycyclohexyl)-3-(2-chloropyridine-4-ylmethyl)-8-fluoroindolizine-1-carboxamide] | 2.06
3 | O=C(NC1CCOCC1O)c1cc(Cc2cccc(F)c2)c2cccnn12 (centres unmarked) [Example 30, N-(3-Hydroxytetrahydropyran-4-yl)-5-(3-fluorobenzyl)-pyrrolo[1,2-b]pyridazine-7-carboxamide] | 1.65
4 | Cn1cc(-c2ccc(Cc3cc(C(=O)NC4CCOCC4)c4c(F)cccn34)cc2)cn1 [Example 50, N-(Tetrahydropyran-4-yl)-3-(4(1-methyl-1H-pyrazol-4-yl)-benzyl)-8-fluoroindolizine-1-carboxamide] | 2.53
5 | Cn1cc(-c2ccc(Cc3cc(C(=O)NC4CCOCC4O)c4c(F)cccn34)cc2)cn1 (centres unmarked) [Example 49, N-(3-Hydroxytetrahydropyran-4-yl)-3-(4-(1-methyl-1H-pyrazol-4-yl)-benzyl)-8-fluoroindolizine-1-carboxamide] | 1.21
6 | O=C(N[C@H]1CCCC[C@@H]1O)c1cc(Cc2ccc(-c3cscn3)cc2)n2cccc(F)c12 [Example 45, N-(cis-1S,2S-2-Hydroxycyclohexyl)-3-(4-thiazol-4-yl-benzyl)-8-fluoroindolizine-1-carboxamide] | 3.19
7 | O=C(N[C@H]1CCCC[C@@H]1O)c1cc(Cc2ccccc2)n2cccc(F)c12 [Example 42, N-(cis-1S,2S-2-Hydroxycyclohexyl)-3-benzyl-8-fluoroindolizine-1-carboxamide] | 1.13
8 | O=C(N[C@H]1CCCC[C@@H]1O)c1cc(Cc2ccc(Br)cc2)n2cccc(F)c12 [Example 41, N-(cis-1S,2S-2-Hydroxycyclohexyl)-3-(4-bromobenzyl)-8-fluoroindolizine-1-carboxamide] | 0.236
9 | O=C(N[C@H]1CCCC[C@@H]1O)c1cc(Cc2ccc(-c3cscn3)cc2)c2cccnn12 [Example 23, N-(cis-1S,2S-2-Hydroxycyclohexyl)-5-(4-thiazol-4-ylbenzyl)-pyrrolo[1,2-b]pyridazine-7-carboxamide] | 0.119
10 | COc1cccc(Cc2cc(C(=O)N[C@H]3CCCC[C@@H]3O)n3ncccc23)c1 [Example 6, N-(cis-1S,2S-2-Hydroxycyclohexyl)-5-(3-methoxybenzyl)-pyrrolo[1,2-b]pyridazine-7-carboxamide] | 3.03
11 | COc1ccc(Cc2cc(C(=O)NC3CCOCC3O)c3c(F)cccn23)cc1 (centres unmarked) [Example 47, N-(3-Hydroxytetrahydropyran-4-yl)-3-(4-methoxybenzyl)-8-fluoroindolizine-1-carboxamide] | 1.11
12 | O=C(NC1CCOCC1)c1cc(Cc2ccc(Cl)nc2)c2cccnn12 [Example 17, N-(Tetrahydropyran-4-yl)-5-(2-chloropyridin-5-ylmethyl)-pyrrolo[1,2-b]pyridazine-7-carboxamide] | 10
13 | Cn1cc(-c2ccc(Cc3cc(C(=O)N[C@H]4CCCC[C@@H]4O)n4ncccc34)cn2)cn1 [Example 35, N-(cis-1S,2S-2-Hydroxycyclohexyl)-5-[6-(1-methyl-1H-pyrazol-4-yl)-pyridin-3-ylmethyl]-pyrrolo[1,2-b]pyridazine-7-carboxamide] | 0.599
14 | COc1ccc(Cc2cc(C(=O)N[C@H]3CCCC[C@@H]3O)c3c(F)cccn23)cc1 [Example 44, N-(cis-1S,2S-2-Hydroxycyclohexyl)-3-(4-methoxybenzyl)-8-fluoroindolizine-1-carboxamide] | 1.59
15 | Cn1cc(-c2cc(Cc3cc(C(=O)N[C@H]4CCCC[C@@H]4O)n4ncccc34)ccc2F)cn1 [Example 37, N-(cis-1S,2S-2-Hydroxycyclohexyl)-5-[4-fluoro-3-(1-methyl-1H-pyrazol-4-yl)-benzyl]-pyrrolo[1,2-b]pyridazine-7-carboxamide] | 1
16 | Cn1cc(-c2ccc(Cc3cc(C(=O)N[C@H]4CCCC[C@@H]4O)n4ncccc34)c(F)c2F)cn1 [Example 36, N-(cis-1S,2S-2-Hydroxycyclohexyl)-5-[2,3-difluoro-4-(1-methyl-1H-pyrazol-4-yl)-benzyl]-pyrrolo[1,2-b]pyridazine-7-carboxamide] | 0.094
17 | Cn1cc(-c2ccc(Cc3cc(C(=O)NC4CCOCC4O)n4ncccc34)cc2)cn1 (centres unmarked) [Example 39, N-(3-Hydroxytetrahydropyran-4-yl)-5-[4-(1-methyl-1H-pyrazol-4-yl)-benzyl]-pyrrolo[1,2-b]pyridazine-7-carboxamide] | 0.291

The next lines start with the values.

Row | EC50 [µM] | Compound
18 | 0.779 | O=C(N[C@H]1CCCC[C@@H]1O)c1cc(Cc2ccc(F)cc2F)c2cccnn12 [Example 7, N-(cis-1S,2S-2-Hydroxycyclohexyl)-5-(2,4-difluorobenzyl)-pyrrolo[1,2-b]pyridazine-7-carboxamide]
19 | 1.76 | O=C(N[C@H]1CCCC[C@@H]1O)c1cc(Cc2ccccc2F)c2cccnn12 [Example 13, N-(cis-1S,2S-2-Hydroxycyclohexyl)-5-(2-fluorobenzyl)-pyrrolo[1,2-b]pyridazine-7-carboxamide]
20 | 2.11 | O=C(N[C@H]1CCCC[C@@H]1O)c1cc(Cc2cccc(F)c2F)c2cccnn12 [Example 9, N-(cis-1S,2S-2-Hydroxycyclohexyl)-5-(2,3-difluorobenzyl)-pyrrolo[1,2-b]pyridazine-7-carboxamide]
21 | 1.34 | COc1cc(Cc2cc(C(=O)N[C@H]3CCCC[C@@H]3O)n3ncccc23)ccc1F [Example 12, N-(cis-1S,2S-2-Hydroxycyclohexyl)-5-(4-fluoro-3-methoxybenzyl)-pyrrolo[1,2-b]pyridazine-7-carboxamide]
22 | 1.7 | O=C(N[C@H]1CCCC[C@@H]1O)c1cc(Cc2cccc(Br)c2)c2cccnn12 [Example 27, N-(cis-1S,2S-2-Hydroxycyclohexyl)-5-(3-bromobenzyl)-pyrrolo[1,2-b]pyridazine-7-carboxamide]
23 | 1.47 | O=C(N[C@H]1CCCC[C@@H]1O)c1cc(Cc2ccc(Br)cc2)c2cccnn12 [Example 1, N-(cis-1S,2S-2-Hydroxycyclohexyl)-5-(4-bromobenzyl)-pyrrolo[1,2-b]pyridazine-7-carboxamide]
24 | 10 | O=C(N[C@H]1CCCC[C@@H]1O)c1cc(Cc2cccnc2Cl)c2cccnn12 [Example 28, N-(cis-1S,2S-2-Hydroxycyclohexyl)-5-(2-chloropyridin-3-ylmethyl)-pyrrolo[1,2-b]pyridazine-7-carboxamide]
25 | 2.1 | O=C(N[C@H]1CCCC[C@@H]1O)c1cc(Cc2cccc(F)c2)c2cccnn12 [Example 19, N-(cis-1S,2S-2-Hydroxycyclohexyl)-5-(3-fluorobenzyl)-pyrrolo[1,2-b]pyridazine-7-carboxamide]
26 | 1.08 | COc1ccc(Cc2cc(C(=O)N[C@H]3CCCC[C@@H]3O)n3ncccc23)c(F)c1 [Example 14, N-(cis-1S,2S-2-Hydroxycyclohexyl)-5-(2-fluoro-4-methoxybenzyl)-pyrrolo[1,2-b]pyridazine-7-carboxamide]
27 | 0.863 | O=C(N[C@H]1CCCC[C@@H]1O)c1cc(Cc2ccc(F)cc2)c2cccnn12 [Example 8, N-(cis-1S,2S-2-Hydroxycyclohexyl)-5-(4-fluorobenzyl)-pyrrolo[1,2-b]pyridazine-7-carboxamide]
28 | 0.419 | O=C(N[C@H]1CCCC[C@@H]1O)c1cc(Cc2cc(Br)ccc2F)c2cccnn12 [Example 2, N-(cis-1S,2S-2-Hydroxycyclohexyl)-5-(5-bromo-2-fluorobenzyl)-pyrrolo[1,2-b]pyridazine-7-carboxamide]
29 | 2.29 | O=C(N[C@H]1CCCC[C@@H]1O)c1cc(Cc2ccc(Br)c(F)c2F)c2cccnn12 [Example 25, N-(cis-1S,2S-2-Hydroxycyclohexyl)-5-(2,3-difluoro-4-bromobenzyl)-pyrrolo[1,2-b]pyridazine-7-carboxamide]
30 | 2.77 | O=C(N[C@H]1CCCC[C@@H]1O)c1cc(Cc2ccc(Cl)nc2)c2cccnn12 [Example 16, N-(cis-1S,2S-2-Hydroxycyclohexyl)-5-(2-chloro-pyridin-5-ylmethyl)-pyrrolo[1,2-b]pyridazine-7-carboxamide]
31 | 2.13 | O=C(N[C@H]1CCCC[C@@H]1O)c1cc(Cc2ccc(Br)nc2)c2cccnn12 [Example 5, N-(cis-1S,2S-2-Hydroxycyclohexyl)-5-(2-bromo-pyridin-5-ylmethyl)-pyrrolo[1,2-b]pyridazine-7-carboxamide]
32 | 1.3 | O=C(N[C@H]1CCCC[C@@H]1O)c1cc(Cc2ccnc(Cl)c2)c2cccnn12 [Example 11, N-(cis-1S,2S-2-Hydroxycyclohexyl)-5-(2-chloro-pyridin-4-ylmethyl)-pyrrolo[1,2-b]pyridazine-7-carboxamide]
